Publication PMC7765409 (International Journal of Molecular Sciences, 2020)
Like-named read-outs stand apart in the source and are kept apart here.

What was measured:
[1] = system: oleic acid-induced lipid droplet accumulation in hiPSC-Hep; test: oleic acid-induced lipid droplet accumulation in hiPSC-Hep; format: cell-based, human; conditions: exogenous oleic acid
Procedure: (§1) A monolayer of hiPSC-Hep, with hepatocyte-like morphology, gene expression and function, was used as a cell model for induction of steatosis and high-content analysis to detect neutral lipid droplet accumulation and inhibition. […] Incubation of the cells with a saturated fluorescently labeled fatty acid analog confirmed localization into neutral lipid vacuoles (Supplementary Figure S1C–F).

[2] = system: palmitic acid-induced lipid accumulation in hiPSC-Hep; test: palmitic acid-induced lipid accumulation in hiPSC-Hep; format: cell-based, human; conditions: exogenous palmitic acid
Procedure: as §1

[3] = system: lipid droplet accumulation in TG/FA-treated hiPSC-Hep; test: hiPSC-Hep ER-stress (TG/FA) induced lipid droplet accumulation high-content assay, integrated spot signal (BODIPY 493/503); format: cell-based, human; conditions: for IC50: Homo sapiens, cells pre-treated 24 h and co-treated additional 18 h with TG/FA
Procedure: Cryopreserved hiPSC-derived hepatocytes (iCell Hepatocytes 2.0; Cellular Dynamics International Madison, WI) plated at a density of 36 K/well in 384-well on collagen I coated Corning Biocoat 384-well plates (BD Biosciences, 101306), were cultured to promote hepatic differentiation and maturation into hepatic-like cells as previously described. Hepatocytes were plated according to the manufacturer’s protocol in a volume of 50 µL/well using BioTek^TM Microflo^TM select dispenser (#7170011, BioTek Instruments) for high-throughput and high-content analysis assay (HT/HCA) drug discovery. After plating cells were cultured according to vendor specifications in a cell culture incubator at 37 °C, 5% CO2 for 3–4 h. Then, 40 µL spent medium was aspirated using multi-channel automated pipette handling system (Integra ViaFlo 96/384) and replaced with 40 µL (80% exchange) of fresh plating medium. Approximately 24 h post-plating 80% of medium was replaced every day thereafter. At day 5 of differentiation, 40 µL/well spent medium was replaced with maintenance medium (MM) consisting of William’s E medium (Thermo Fisher Scientific) supplemented with 0.1 µM dexamethasone and hepatocyte maintenance supplement pack (Thermo Fisher Scientific) for an additional 2–3 days before HCA. The overview of automated HT system for hiPSC-derived hepatocytes differentiation, staining and image analysis for phenotypic screening is depicted in Figure S2. Primary screening hit confirmation and dose response studies were performed on different batches of hiPSC-derived hepatocytes.
To induce hepatic triglycerides (TAG) accumulation, before staining, cells were treated with 20 μL of 2× FA mixture, consisting of different proportions of oleic acid (OA-BSA, 25 µM, Sigma, #O3008), palmitic acid (PA-BSA, 200 µM, Agilent Technologies, #102720100) and thapsigargin (TG, 1 µM, Abcam, #120286) with a total volume of 40 μL/well. The TG/FA mixture was dispensed with BioTek^TM Microflo^TM select dispenser (#7170011, BioTek Instruments) and incubated for 18 h. Next, to label TAG accumulation stored into cytoplasmic lipid droplets, upon treatment, living cells were washed two times with warm Dulbecco’s Phosphate-Buffered Saline 1X (PBS, Corning, #21-031CV) with a handheld 384-channel electronic pipette device and then incubated for 15 min with a lipophilic dye, BODIPY 493/503 (8 ug/mL Life technologies, #D3922-green), in PBS at 37 °C. BODIPY (493/503) has become the standard dye utilized by scientists to study lipid droplets in live cells. After three washes with PBS cells were fixed with 4% paraformaldehyde methanol-free (PFA, Electron Microscopy Science, #15710) in PBS for 15 min at room temperature (RT). Cell health was monitored by Hoechst 33342 (10 ug/mL, Molecular Probe, #H21492) staining in PBS for nuclear count. After TAG staining the 384-assay plates were loaded in an automated confocal microscope with Opera High Content Imaging System (PerkinElmer, Waltham, MA, USA). Dyes were excited and images were captured on the Hoechst 3342 and Alexa Fluor 488 channels and signals were collected with a long pass filter 410 and 505 nm, for nuclei and TAG, respectively, at objective 20× air objective for HCA. To capture enough cells (>600) for the analysis, eight fields per well were imaged. Hoechst 33342 fluorescence was used to identify the nuclear region and cell counts. To assess intracellular fat deposits, BODIPY 493/503 fluorescence intensity was measured inside the cytoplasm region.
For the HCA screen, compounds tested for their inhibitory effects, were used as single dose at a 10 μM final concentration of compound in DMSO in each well (0.1% DMSO) in 20 μL of maintenance medium. Prior to compound addition, 30 µL/well of medium was removed from hiPSC-Hep cells screening plates with ViaFlo ([…]). Pre-spotted 80 nL of 10 mM compound were diluted to 20 μM (0.2% DMSO) in 40 μL of maintenance medium in the source 384-well plate. […]

[4] = system: FXR target genes; test: transcriptomic (RNA-seq) analysis of OCA pre-incubated TG/FA-treated hiPSC-Hep; format: cell-based, human; conditions: TG/FA+OCA vs TG/FA
Procedure: The phenotypic assay was measured and quantified by BODIPY 493/503-stained neutral lipid droplets multiplexed with Hoechst dye to detect viable cell count, as shown by the process in Supplementary Figure S2. Obeticholic acid (OCA), a clinically advanced therapeutic and farnesoid X receptor (FXR) agonist evaluated in phase III trials for the treatment of NASH [40], was used as an inhibitor control of lipid accumulation (Figure 1A). […] Our results are in accordance with therapeutic plasma concentrations of OCA (0.290 µM) and with studies performed in a human liver in vitro system (0.5 µM). […] FXR target genes, including fibroblast growth factor 19 (FGF19), solute carrier family 51 subunit Beta (SLC51B), cytochrome P450 7A1 (CYP7A1) and perilipin 1 (PLIN1) are regulated by OCA under our treatment conditions.
Z’ = 1 − (3 SD of sample group + 3 SD of negative control)/(mean of sample group−mean of negative control). FA/TG-treated wells were defined as general sample group and BSA-treated wells were defined as negative controls for calculating Z’-factor. In our assay, the Z’ criteria were as follows: Z’ = 0.5–1.0 corresponds to an excellent assay; Z’ = 0–0.5 corresponds to a suboptimal assay; Z’ < 0 corresponds to an unsuccessful assay. Percent inhibition of lipid accumulation was calculated based on the positive (BSA-treated) and negative (FA/TG-treated) controls on each plate: % inhibition = 100 * [(compound value–AVEneg)/(AVEpos–AVEneg)]. RNA-seq data were analyzed by iPathwayGuide (Advaita Bioinformatics: http://www.advaitabio.com/ipathwayguide.html) as described in [35]. Differences between two groups were analyzed using Student’s t-tests. Fold-change expression values obtained from RT-qPCR were analyzed by one-way analysis of variance (ANOVA) followed by post hoc comparisons of group means with the Tukey’s multiple comparison tests at an overall confidence level of 95% using Prism software (GraphPad).

[5] = system: DGAT2 mRNA; set-up: method as in PMID 30254132; conditions: after 4 and 18 h treatment with thapsigargin and free-fatty acids; cited from earlier work
[6] = set-up: method as in PMID 29226620; conditions: cited from earlier work

Structure (SMILES)	inhibition of oleic acid-induced lipid droplet accumulation [1]	inhibition of oleic acid-induced lipid droplet accumulation ([1]; listed as triacsin C)	inhibition of palmitic acid-induced lipid accumulation [2]	IC50 ([3]; read-out: half maximal inhibitory concentration (IC50) for reduction of lipid accumulation)	IC50 ([3]; read-out: pIC50 for reduction of lipid accumulation (converted))	lipid content of lipid droplet-stained cells ([3]; OCA at 20 µM in TG/FA-treated cells vs BSA-treated control)	CYP7A1 gene regulation [4]	FGF19 gene regulation [4]	PLIN1 gene regulation [4]	SLC51B gene regulation [4]	effect on DGAT2 expression [5]	therapeutic plasma concentrations [6]
CCC/C=C/C/C=C/C=C/C=N/NN=O [Triacsin C]	fully inhibits	completely inhibits	did not inhibit									
CC[C@H]1[C@@H](O)[C@@H]2[C@H](CC[C@]3(C)[C@@H]([C@H](C)CCC(=O)O)CC[C@@H]23)[C@@]2(C)CC[C@@H](O)C[C@@H]12 [OCA, Obeticholic acid]				630 nM	631 nM	reduced lipid content to control levels	downregulation	upregulation	upregulation	downregulation	significantly inhibited	0.290 µM
